According to PubChem BioAssay (NCI):
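Interpolation was linear, between the two tested concentrations surrounding the appropriate level; five concentrations were tested over 48 hours in 96-well plates. The concentration for full growth arrest is given as TGI.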

Assays:
Test in all cases: NCI anticancer screen, dose series, 48 h
A549 NSCLC = system: A549 NSCLC
KM12 colon = system: KM12 colon
OVCAR-5 ovarian = system: OVCAR-5 ovarian
RXF 393 renal = system: RXF 393 renal
ACHN renal = system: ACHN renal
SR leukemia = system: SR leukemia
SN12C renal = system: SN12C renal
SF-295 CNS = system: SF-295 CNS
U251 CNS = system: U251 CNS
NCI-H460 lung = system: NCI-H460 lung
NCI-H23 lung = system: NCI-H23 lung
HOP-62 NSCLC = system: HOP-62 NSCLC
M14 melanoma = system: M14 melanoma
IGROV1 ovarian = system: IGROV1 ovarian
LOX IMVI melanoma = system: LOX IMVI melanoma
UO-31 renal = system: UO-31 renal
HT29 colon = system: HT29 colon
HCT-15 colon = system: HCT-15 colon
T-47D breast = system: T-47D breast
MDA-MB-231 breast = system: MDA-MB-231 breast
786-0 renal = system: 786-0 renal
SK-MEL-28 melanoma = system: SK-MEL-28 melanoma
BT-549 breast = system: BT-549 breast
NCI/ADR-RES ovarian = system: NCI/ADR-RES ovarian
DU-145 prostate = system: DU-145 prostate
SW-620 colon = system: SW-620 colon
CAKI-1 renal = system: CAKI-1 renal
SK-MEL-5 melanoma = system: SK-MEL-5 melanoma
HS 578T breast = system: HS 578T breast
OVCAR-4 ovarian = system: OVCAR-4 ovarian
OVCAR-3 ovarian = system: OVCAR-3 ovarian
K-562 leukemia = system: K-562 leukemia
UACC-257 melanoma = system: UACC-257 melanoma
NCI-H226 lung = system: NCI-H226 lung
MALME-3M melanoma = system: MALME-3M melanoma
HCC-2998 colon = system: HCC-2998 colon
SF-268 CNS = system: SF-268 CNS
NCI-H522 lung = system: NCI-H522 lung
A498 renal = system: A498 renal
OVCAR-8 ovarian = system: OVCAR-8 ovarian
SK-MEL-2 melanoma = system: SK-MEL-2 melanoma
TK-10 renal = system: TK-10 renal
MDA-MB-435 = system: MDA-MB-435
HOP-92 NSCLC = system: HOP-92 NSCLC
MOLT-4 leukemia = system: MOLT-4 leukemia
PC-3 prostate = system: PC-3 prostate
HCT-116 colon = system: HCT-116 colon
SNB-19 CNS = system: SNB-19 CNS
HL-60(TB) leukemia = system: HL-60(TB) leukemia
EKVX NSCLC = system: EKVX NSCLC
MDA-N = system: MDA-N
UACC-62 melanoma = system: UACC-62 melanoma
COLO 205 colon = system: COLO 205 colon
MCF7 breast = system: MCF7 breast
CCRF-CEM leukemia = system: CCRF-CEM leukemia
SK-OV-3 ovarian = system: SK-OV-3 ovarian
SNB-75 CNS = system: SNB-75 CNS
SF-539 CNS = system: SF-539 CNS

## O=C(O)Cc1cc(O)c(CC(=O)O)cc1O
A549 NSCLC
  TGI: > 100000 nM
KM12 colon
  TGI: > 100000 nM
OVCAR-5 ovarian
  TGI: > 100000 nM
RXF 393 renal
  TGI: > 100000 nM
ACHN renal
  TGI: > 100000 nM
SR leukemia
  TGI: > 100000 nM
SN12C renal
  TGI: > 100000 nM
SF-295 CNS
  TGI: > 100000 nM
U251 CNS
  TGI: > 100000 nM
NCI-H460 lung
  TGI: > 100000 nM
NCI-H23 lung
  TGI: > 100000 nM
HOP-62 NSCLC
  TGI: > 100000 nM
M14 melanoma
  TGI: > 100000 nM
IGROV1 ovarian
  TGI: > 100000 nM
LOX IMVI melanoma
  TGI: > 100000 nM
UO-31 renal
  TGI: > 100000 nM
HT29 colon
  TGI: > 100000 nM
HCT-15 colon
  TGI: > 100000 nM
T-47D breast
  TGI: > 100000 nM
MDA-MB-231 breast
  TGI: > 100000 nM
786-0 renal
  TGI: > 100000 nM
SK-MEL-28 melanoma
  TGI: > 100000 nM
BT-549 breast
  TGI: > 100000 nM
NCI/ADR-RES ovarian
  TGI: > 100000 nM
DU-145 prostate
  TGI: > 100000 nM
SW-620 colon
  TGI: > 100000 nM
CAKI-1 renal
  TGI: > 100000 nM
SK-MEL-5 melanoma
  TGI: > 100000 nM
HS 578T breast
  TGI: > 100000 nM
OVCAR-4 ovarian
  TGI: > 100000 nM
OVCAR-3 ovarian
  TGI: > 100000 nM
K-562 leukemia
  TGI: > 100000 nM
UACC-257 melanoma
  TGI: > 100000 nM
NCI-H226 lung
  TGI: > 100000 nM
MALME-3M melanoma
  TGI: > 100000 nM
HCC-2998 colon
  TGI: > 100000 nM
SF-268 CNS
  TGI: > 100000 nM
NCI-H522 lung
  TGI: > 100000 nM
A498 renal
  TGI: > 100000 nM
OVCAR-8 ovarian
  TGI: > 100000 nM
SK-MEL-2 melanoma
  TGI: > 100000 nM
TK-10 renal
  TGI: > 100000 nM
MDA-MB-435
  TGI: > 100000 nM
HOP-92 NSCLC
  TGI: > 100000 nM
MOLT-4 leukemia
  TGI: > 100000 nM
PC-3 prostate
  TGI: > 100000 nM
HCT-116 colon
  TGI: > 100000 nM
SNB-19 CNS
  TGI: > 100000 nM
HL-60(TB) leukemia
  TGI: > 100000 nM
EKVX NSCLC
  TGI: > 100000 nM
MDA-N
  TGI: > 100000 nM
UACC-62 melanoma
  TGI: > 100000 nM

## C=C(CC[C@@H](C)[C@H]1CC[C@@]2(C)C3=C(CC[C@]12C)[C@@]1(C)CC[C@H](O)[C@@H](C)C1CC3)C(C)C (stereo partly specified)
A549 NSCLC
  TGI: 2320 nM
KM12 colon
  TGI: 2760 nM
OVCAR-5 ovarian
  TGI: 2670 nM
RXF 393 renal
  TGI: 2540 nM
ACHN renal
  TGI: 2550 nM
SR leukemia
  TGI: 2710 nM
SN12C renal
  TGI: 2720 nM
COLO 205 colon
  TGI: 2410 nM
SF-295 CNS
  TGI: 2270 nM
U251 CNS
  TGI: 3110 nM
NCI-H460 lung
  TGI: 2090 nM
NCI-H23 lung
  TGI: 2510 nM
HOP-62 NSCLC
  TGI: 1900 nM
M14 melanoma
  TGI: 2360 nM
IGROV1 ovarian
  TGI: 8320 nM
LOX IMVI melanoma
  TGI: 2000 nM
UO-31 renal
  TGI: 2350 nM
HT29 colon
  TGI: 1970 nM
MCF7 breast
  TGI: 2690 nM
HCT-15 colon
  TGI: 2500 nM
MDA-MB-231 breast
  TGI: 2740 nM
786-0 renal
  TGI: 2070 nM
SK-MEL-28 melanoma
  TGI: 2510 nM
BT-549 breast
  TGI: 3130 nM
NCI/ADR-RES ovarian
  TGI: 3650 nM
SW-620 colon
  TGI: 3440 nM
CAKI-1 renal
  TGI: 2260 nM
SK-MEL-5 melanoma
  TGI: 2550 nM
HS 578T breast
  TGI: 3130 nM
OVCAR-4 ovarian
  TGI: 3300 nM
OVCAR-3 ovarian
  TGI: 3590 nM
K-562 leukemia
  TGI: 1180 nM
UACC-257 melanoma
  TGI: 2700 nM
NCI-H226 lung
  TGI: 5010 nM
MALME-3M melanoma
  TGI: 2510 nM
HCC-2998 colon
  TGI: 2700 nM
CCRF-CEM leukemia
  TGI: 2220 nM
A498 renal
  TGI: 2580 nM
OVCAR-8 ovarian
  TGI: 3530 nM
SK-MEL-2 melanoma
  TGI: 2930 nM
TK-10 renal
  TGI: 2560 nM
MDA-MB-435
  TGI: 2820 nM
HOP-92 NSCLC
  TGI: 2540 nM
MOLT-4 leukemia
  TGI: 2490 nM
PC-3 prostate
  TGI: 2280 nM
SK-OV-3 ovarian
  TGI: 2790 nM
HCT-116 colon
  TGI: 2480 nM
SNB-19 CNS
  TGI: 4450 nM
HL-60(TB) leukemia
  TGI: 8320 nM
EKVX NSCLC
  TGI: 2420 nM
SNB-75 CNS
  TGI: 2490 nM
MDA-N
  TGI: 2330 nM
SF-539 CNS
  TGI: 2710 nM
UACC-62 melanoma
  TGI: 2610 nM
